Experimental findings from US8394788B2, “Phenylsulfoxyoxazole compound inhibitors of urea transporters” (The Regents of the University of California, priority 2006, dated 2013) are described below.

Where only a bound is given, the exact number is not on record here.

Experiment [1] concerns the target T1, mouse UT-B (Mus musculus, UniProt Q8VHL0).
T1 construct: the indicator cells are red blood cells that endogenously express the UT-B urea transporter; endogenous in cells; host or cells: mouse red blood cells (CD1 background; wild-type for A4, AQP1-null for A10)
T1 sequence (Q8VHL0 1-384): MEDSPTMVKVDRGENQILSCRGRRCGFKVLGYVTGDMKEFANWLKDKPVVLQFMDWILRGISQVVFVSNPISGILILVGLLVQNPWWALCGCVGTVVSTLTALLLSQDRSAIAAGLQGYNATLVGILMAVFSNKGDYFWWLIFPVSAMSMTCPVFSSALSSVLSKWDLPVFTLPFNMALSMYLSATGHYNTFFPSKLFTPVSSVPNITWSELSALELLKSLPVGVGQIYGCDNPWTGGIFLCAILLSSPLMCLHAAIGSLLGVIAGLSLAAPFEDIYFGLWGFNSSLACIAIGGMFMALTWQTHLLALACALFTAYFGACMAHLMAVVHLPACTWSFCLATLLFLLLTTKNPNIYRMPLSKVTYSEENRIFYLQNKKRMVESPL
Description: Stopped-flow light scattering, mouse RBCs (N-methylurea gradient). In kind it is cell-based. How it is done:
(§1) RBC urea and water permeabilities were assayed by stopped-flow light scattering using a Hi-Tech Sf-51 instrument (Wiltshire, UK). For measurement of urea permeability, dilutions of whole blood (human or mouse; see Example 1) in PBS (hematocrit: approximately 0.5%) were incubated with test compounds for 5 min and then subjected to a 250-mM inwardly directed gradient of urea. After an initial osmotic shrinking phase, the kinetics of increasing cell volume caused by urea influx were measured as the time-course of 90° scattered light intensity at 530 nm, with increasing cell volume resulting in reduced scattered light intensity. As a positive control, 0.7 mM phloretin was added to the RBC suspension prior to stopped-flow experiments. Measurements of water permeability were carried out similarly, with sucrose (cell-impermeant) used instead of urea to establish a 250-mM osmotic gradient. As a positive control, HgCl2 (0.3 mM) was added to the RBC suspension prior to stopped-flow measurements. Osmotic water permeability coefficients (Pf) were computed from light scattering data as described (van Hoek et al., J Biol. Chem. 267:18267-69 (1992)). […]

The test system of experiment [2] is RBCs from wild-type mice. Description: Osmotic water permeability, RBCs from wild-type mice (stopped-flow). The conditions noted are these: 10° C., 250-mM sucrose gradient. The format is cell-based, mouse. How it is done: (§2) RBC urea and water permeabilities were assayed by stopped-flow light scattering using a Hi-Tech Sf-51 instrument (Wiltshire, UK). For measurement of urea permeability, dilutions of whole blood (human or mouse; see Example 1) in PBS (hematocrit: approximately 0.5%) were incubated with test compounds for 5 min and then subjected to a 250-mM inwardly directed gradient of urea. After an initial osmotic shrinking phase, the kinetics of increasing cell volume caused by urea influx were measured as the time-course of 90° scattered light intensity at 530 nm, with increasing cell volume resulting in reduced scattered light intensity. As a positive control, 0.7 mM phloretin was added to the RBC suspension prior to stopped-flow experiments. Measurements of water permeability were carried out similarly, with sucrose (cell-impermeant) used instead of urea to establish a 250-mM osmotic gradient. As a positive control, HgCl2 (0.3 mM) was added to the RBC suspension prior to stopped-flow measurements. Osmotic water permeability coefficients (Pf) were computed from light scattering data as described (van Hoek et al., J Biol. Chem. 267:18267-69 (1992)).
This example describes chemical knock-out of UT-B by UT-B inhibitors in RBCs and the effect on UT-B-facilitated water transport. […] Osmotic water permeability was measured by stopped-flow light scattering in RBCs from wild-type and AQP1-null mice as shown in FIG. 8A. […] AQP1-null RBCs had greater than 5-fold reduced Pf compared to wild-type RBCs.

Experiment [3] deals with T2, UT-B (Mus musculus, UniProt Q8VHL0).
T2 construct: the indicator cells are red blood cells that endogenously express the UT-B urea transporter; endogenous in cells; host or cells: mouse red blood cells (CD1 background; wild-type for A4, AQP1-null for A10)
T2 sequence (Q8VHL0 1-384): T1 sequence (Q8VHL0 1-384)
The experiment in a line: Osmotic water permeability, AQP1-null mouse RBCs (UT-B-facilitated water transport). The format is cell-based. Particulars: 10° C., 250-mM sucrose gradient. Here is the method: as §1, with “measurements.” for “measurements. Osmotic water permeability coefficients (Pf) were computed from light scattering data as described (van Hoek et al., J Biol. Chem. 267:18267-69 (1992)).”
This example describes chemical knock-out of UT-B by UT-B inhibitors in RBCs and the effect on UT-B-facilitated water transport. […] Osmotic water permeability was measured by stopped-flow light scattering in RBCs from wild-type and AQP1-null mice as shown in FIG. 8A. […]

Experiment [4] addresses T3, UT-B (Homo sapiens, UniProt Q13336).
T3 sequence (Q13336 1-389): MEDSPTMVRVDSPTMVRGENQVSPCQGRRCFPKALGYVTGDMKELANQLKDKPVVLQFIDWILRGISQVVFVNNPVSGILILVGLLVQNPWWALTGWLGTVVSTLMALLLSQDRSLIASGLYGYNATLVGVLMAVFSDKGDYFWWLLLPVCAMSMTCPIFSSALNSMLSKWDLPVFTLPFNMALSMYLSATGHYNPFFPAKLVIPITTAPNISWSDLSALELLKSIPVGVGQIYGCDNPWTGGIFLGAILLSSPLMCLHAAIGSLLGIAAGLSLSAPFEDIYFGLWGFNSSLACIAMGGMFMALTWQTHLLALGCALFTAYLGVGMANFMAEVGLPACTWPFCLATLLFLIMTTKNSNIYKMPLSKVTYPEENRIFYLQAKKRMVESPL
Description: Stopped-flow light scattering, urea permeability of human RBCs. In kind it is cell-based. More on the design: a red blood cell (i.e., erythrocyte), which endogenously expresses the urea transporter UT-B; endogenous in cells; host or cells: human red blood cells (whole blood, single donor). The conditions noted are these: for inhibition of urea transport, inhibitor only in urea-containing solution (sidedness): external exposure at time of stopped-flow, 0.1 μM ureainh-101, 0.2 μM ureainh-302; for reversibility of inhibition after washing RBCs: washed after 10 min incubation. Here is the method:
as §2
After repeating the 96-well plate RBC lysis assay to confirm compound activity (see Example 2), bona fide urea transport inhibition was determined by stopped-flow light scattering from the kinetics of urea influx (RBC swelling) in response to an inwardly directed urea gradient. Rapid mixing of an RBC suspension with a hyperosmolar solution containing excess 250 mM urea produced rapid cell shrinking due to osmotic water efflux, followed by cell swelling as urea (and water) influx occurred.
To determine EC50 values for urea transport inhibition directly, RBC urea transport was measured by stopped-flow light scattering using a non-saturating concentration of extracellular urea (to avoid possible competition effects). EC50 for inhibition of RBC urea transport was determined independently by comparing stopped-flow light scattering curves to a model of cell shrinking-swelling.
For stopped-flow experiments, a 100-mM gradient of urea (for human RBCs) or N-methylurea (for mouse RBCs) was used to minimize competition effects (apparent urea and N-methylurea affinities at 23° C. are approximately 200 and approximately 100 mM, respectively) (Mayrand et al., J Gen Physiol. 81:221-37 (1983)). N-methylurea, with greater than 2-fold slower RBC permeability than urea, was used in mouse studies to better resolve overlapping water and urea transport kinetics. Dose-response data were also collected for human RBCs using a high concentration of 1 M urea to distinguish between competitive vs. non-competitive inhibitor binding.
The two coupled differential equations describing water efflux and solute influx in response to externally added urea or methylurea were numerically integrated using the forward Euler method (Δt=0.01 s) to reproduce the biphasic changes in cell volume observed experimentally. Computations that were performed using the smaller time step (Δt=0.001 s) gave similar results, confirming the adequacy of the 0.01 s time step. Water flux, Jv (in cm^3/s), across erythrocyte membranes is represented by the following equation: Jv=−Pf·S·vw·[(Ie−Ic(i))+(Ue−Uc(i))]; solute flux, Js (in mol/s), is represented by the following equation: Ps·S·(Ue−Uc(i)). Permeability coefficients (Pf and Ps) are expressed in units of cm/s, cell surface area (S) in cm^2, extracellular (e) and cellular (c) concentrations of impermeant (I) and urea/methylurea (U) solute in mol/cm^3, and vw is […]. Initial conditions were Ie=Ic(0)=2.9×10^−4 mol/cm^3, Ue=10^−4 mol/cm^3, and Uc(0)=0. […]

As for `Cc1ccc(Nc2nnc(-c3ccc(C(N)=O)cc3)c3ccccc23)cc1` [ureainh-302], in experiment [1], the “inhibitory potencies against mouse UT-B” value is on record as “good inhibitory potencies”. Further, the “effect on water transport in RBCs from wild-type mice” value in experiment [2] is listed as “little effect”. In experiment [3], the “effect on water permeability in AQP1-null RBCs” value is “further inhibited water permeability”. Also, in experiment [4], the “inhibition of urea transport, inhibitor only in urea-containing solution (sidedness)” value is listed as “sizable effect” and the “reversibility of inhibition after washing RBCs” value is recorded as “fully reversible inhibition”. Moreover, the “concentration dependence of inhibition of urea permeability by externally added inhibitor” value in experiment [4] (externally added, 0.05-0.2 μM) is “concentration-dependent”.

On to `NC(=O)CSc1oc(-c2ccccc2)nc1S(=O)(=O)c1ccc(Br)cc1` [ureainh-101, 2-(4-(4-bromophenylsulfonyl)-2-phenyloxazol-5-ylthio)acetamide], for which the “inhibitory potencies against mouse UT-B” value in experiment [1] was “good inhibitory potencies”. For the same molecule, the “effect on water transport in RBCs from wild-type mice” value in experiment [2] was “little effect”. Moreover, in experiment [3], the “effect on water permeability in AQP1-null RBCs” value is “further inhibited water permeability”. In experiment [4] (10 min pre-incubation, 0.1 μM ureainh-101, 0.4 μM ureainh-302, read-out: transport inhibition after pre-incubation), the inhibition at 0.1 µM is above 95%. Also, in experiment [4], the “inhibition of urea transport, inhibitor only in urea-containing solution (sidedness)” value is on record as “did not inhibit urea transport” and the “reversibility of inhibition after washing RBCs” value is reported as “fully reversible inhibition”.

In general, inhibition refers to the percentage by which the read-out fell short of the control.
